Measurements: BindingDB's records for doi:10.1016/j.bmc.2006.09.052 (Kirin Brewery, 2006)

Test: Inhibition of MCP1-induced cell migration in U937 cells expressing CCR2 by chemotaxis assay

IC50 [µM]	Structure (SMILES)
> 100	O=C(NCc1ccccc1)Nc1ccc2[nH]ncc2c1 [1-benzyl-3-(1H-indazol-5-yl)urea]
1	c1ccc(CN2CCCC(Oc3ccc4[nH]ncc4c3)C2)cc1 (stereo unspecified) [1-benzyl-3-piperidyl-(1H-5-indazolyl)ether]
6	c1ccc(CN2CCC(Oc3ccc4[nH]ncc4c3)CC2)cc1 [1-benzyl-4-piperidyl-(1H-5-indazolyl)ether]
1	O=C(Nc1ccc2[nH]ncc2c1)C1CCCN(Cc2ccccc2)C1 (stereo unspecified) [1-benzyl-N-(1H-indazol-5-yl)piperidine-3-carboxamide]
1	Fc1ccc(CN2CCCC(Nc3ccc4[nH]ncc4c3)C2)cc1F (stereo unspecified) [N-(1-(3,4-difluorobenzyl)piperidin-3-yl)-1H-indazol-5-amine]
> 30	COc1cc(CN2CCCC(Nc3ccc4[nH]ncc4c3)C2)cc(OC)c1 (stereo unspecified) [N-(1-(3,5-dimethoxybenzyl)piperidin-3-yl)-1H-indazol-5-amine]
2	Nc1ccc(CN2CCCC(Nc3ccc4[nH]ncc4c3)C2)cc1 (stereo unspecified) [N-(1-(4-aminobenzyl)piperidin-3-yl)-1H-indazol-5-amine]
1	Clc1ccc(CN2CCCC(Nc3ccc4[nH]ncc4c3)C2)cc1 (stereo unspecified) [N-(1-(4-chlorobenzyl)piperidin-3-yl)-1H-indazol-5-amine]
4	Fc1ccc(CN2CCCC(Nc3ccc4[nH]ncc4c3)C2)cc1 (stereo unspecified) [N-(1-(4-fluorobenzyl)piperidin-3-yl)-1H-indazol-5-amine]
1	COc1ccc(CN2CCCC(Nc3ccc4[nH]ncc4c3)C2)cc1 (stereo unspecified) [N-(1-(4-methoxybenzyl)piperidin-3-yl)-1H-indazol-5-amine]
1	Cc1ccc(CN2CCCC(Nc3ccc4[nH]ncc4c3)C2)cc1 (stereo unspecified) [N-(1-(4-methylbenzyl)piperidin-3-yl)-1H-indazol-5-amine]
19	O=[N+]([O-])c1ccc(CN2CCCC(Nc3ccc4[nH]ncc4c3)C2)cc1 (stereo unspecified) [N-(1-(4-nitrobenzyl)piperidin-3-yl)-1H-indazol-5-amine]
5	c1coc(CN2CCCC(Nc3ccc4[nH]ncc4c3)C2)c1 (stereo unspecified) [N-(1-(furan-2-ylmethyl)piperidin-3-yl)-1H-indazol-5-amine]
> 30	c1cc(CN2CCCC(Nc3ccc4[nH]ncc4c3)C2)ccn1 (stereo unspecified) [N-(1-(pyridin-4-ylmethyl)piperidin-3-yl)-1H-indazol-5-amine]
6	c1csc(CN2CCCC(Nc3ccc4[nH]ncc4c3)C2)c1 (stereo unspecified) [N-(1-(thiophen-2-ylmethyl)piperidin-3-yl)-1H-indazol-5-amine]
1	c1cc(CN2CCCC(Nc3ccc4[nH]ncc4c3)C2)cs1 (stereo unspecified) [N-(1-(thiophen-3-ylmethyl)piperidin-3-yl)-1H-indazol-5-amine]

IC50 [µM]	Structure (SMILES)
2	c1ccc(CN2CCCC(Nc3ccc4[nH]ncc4c3)C2)cc1 (stereo unspecified) [N-(1-benzylpiperidin-3-yl)-1H-indazol-5-amine]
30	c1ccc(CN2CCC(Nc3ccc4[nH]ncc4c3)CC2)cc1 [N-(1-benzylpiperidin-4-yl)-1H-indazol-5-amine]
10	c1ccc(CN2CCC(Nc3ccc4[nH]ncc4c3)C2)cc1 (stereo unspecified) [N-(1-benzylpyrrolidin-3-yl)-1H-indazol-5-amine]
> 100	O=C(NCc1ccc(Cl)cc1Cl)Nc1ccc2[nH]ncc2c1 [N-(2,4-dichlorobenzyl)-N0-(1H-5-indazolyl)urea]
> 100	O=C(NCc1c(F)cccc1F)Nc1ccc2[nH]ncc2c1 [N-(2,6-difluorobenzyl)-N0-(1H-5-indazolyl)urea]
10	c1c[nH]c(CN2CCCC(Nc3ccc4[nH]ncc4c3)C2)c1 (stereo unspecified) [N-[1-(1H-2-pyrrolylmethyl)-3-piperidyl]-N-(1H-5-indazolyl)amine]
1	Nc1ccccc1CN1CCCC(Nc2ccc3[nH]ncc3c2)C1 (stereo unspecified) [N-[1-(2-aminobenzyl)-3-piperidyl]-N-(1H-5-indazolyl)amine]
8	Clc1ccccc1CN1CCCC(Nc2ccc3[nH]ncc3c2)C1 (stereo unspecified) [N-[1-(2-chlorobenzyl)-3-piperidyl]-N-(1H-5-indazolyl)amine]
7	Clc1ccccc1CN1CCC(Nc2ccc3[nH]ncc3c2)C1 (stereo unspecified) [N-[1-(2-chlorobenzyl)-3-pyrrolidyl]-N-(1H-5-indazolyl)amine]
3	Nc1cccc(CN2CCCC(Nc3ccc4[nH]ncc4c3)C2)c1 (stereo unspecified) [N-[1-(3-aminobenzyl)-3-piperidyl]-N-(1H-5-indazolyl)amine]
8	Clc1cccc(CN2CCCC(Nc3ccc4[nH]ncc4c3)C2)c1 (stereo unspecified) [N-[1-(3-chlorobenzyl)-3-piperidyl]-N-(1H-5-indazolyl)amine]
5	Clc1cccc(CN2CCC(Nc3ccc4[nH]ncc4c3)C2)c1 (stereo unspecified) [N-[1-(3-chlorobenzyl)-3-pyrrolidyl]-N-(1H-5-indazolyl)amine]
19	O=[N+]([O-])c1cccc(CN2CCCC(Nc3ccc4[nH]ncc4c3)C2)c1 (stereo unspecified) [N-[1-(3-nitrobenzyl)-3-piperidyl]-N-(1H-5-indazolyl)amine]
20	c1cncc(CN2CCCC(Nc3ccc4[nH]ncc4c3)C2)c1 (stereo unspecified) [N-[1-(3-pyridylmethyl)-3-piperidyl]-N-(1H-5-indazolyl)amine]
1	Clc1ccc(CN2CCC(Nc3ccc4[nH]ncc4c3)C2)cc1 (stereo unspecified) [N-[1-(4-chlorobenzyl)-3-pyrrolidyl]-N-(1H-5-indazolyl)amine]
